Paper PMC4342888, “A search for protein biomarkers links olfactory signal transduction to social immunity” (BMC Genomics, 2015)

How the values were obtained:
[1] = molecular target: T1, OBP21 (Apis mellifera, UniProt A0ACM8Q9Q6); assay: biochemical; parameters: competitive fluorescence displacement of 1-NPN (2 uM) from recombinant OBP, emission 380-450 nm
T1 construct: purified recombinant protein
T1 sequence (A0ACM8Q9Q6 17-135): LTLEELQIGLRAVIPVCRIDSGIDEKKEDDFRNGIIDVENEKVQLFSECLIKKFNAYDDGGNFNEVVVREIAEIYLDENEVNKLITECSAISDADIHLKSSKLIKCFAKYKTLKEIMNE
Protocol: (§1) The probe was excited at 337 nm and emission spectra were recorded between 380 and 450 nm. […] For determining binding constants, the intensity values corresponding to the maximum of fluorescence emission were plotted against free ligand concentrations. Bound ligand was evaluated from the values of fluorescence intensity assuming that the protein was 100% active, with a stoichiometry of 1:1 protein:ligand at saturation. The curves were linearized using Scatchard plots. Dissociation constants of the competitors were calculated from the corresponding IC50 values (concentrations of ligands halving the initial fluorescence value of 1-NPN), using the equation: KD = [IC50]/1 + [1-NPN]/K1-NPN, [1-NPN] being the free concentration of 1-NPN and K1-NPN being the dissociation constant of the complex Protein/1-NPN.  Figure 7 Potential ligands of OBPs. Twenty nine potential ligands were tested in a competitive binding assay for their binding to OBP16, OBP18 and OBP21. Each purified recombinant protein was mixed with the fluorescent probe N-phenyl-1-naphthylamine (1-NPN), both at the concentration of 2 μM in Tris buffer. Each mixture was titrated with a ligand and the displacement of the fluorescent probe from the complex was used to evaluate the relative dissociation constants, as described in the Methods section. Compounds with higher affinities are shown in the top panel, while compound with lower affinity are shown in the lower panel.

[2] = molecular target: T2, Odorant binding protein 16 (OBP16) (Apis mellifera, UniProt A0ACM8Q9Q1); assay: biochemical; parameters: competitive fluorescence displacement of 2 uM 1-NPN from purified recombinant OBP (2 uM), Tris pH 7.4; details: for IC50: IC50 against 2 uM 1-NPN; for Kd: KD calculated from IC50 of 1-NPN displacement
T2 construct: recombinant mature protein
T2 sequence (A0ACM8Q9Q1 17-135): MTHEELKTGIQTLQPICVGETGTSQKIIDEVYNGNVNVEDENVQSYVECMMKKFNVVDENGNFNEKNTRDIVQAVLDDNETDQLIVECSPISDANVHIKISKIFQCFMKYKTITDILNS
Protocol: as §1

[3] = molecular target: T1, OBP21; assay: biochemical; parameters: competitive fluorescence displacement of 2 uM 1-NPN from purified recombinant OBP (2 uM), Tris pH 7.4; details: IC50 against 2 uM 1-NPN
Protocol: as §1

[4] = molecular target: T3, Odorant binding protein 18 (OBP18) (Apis mellifera, UniProt A0ACM8Q9Q2); assay: biochemical; parameters: competitive fluorescence displacement of 2 uM 1-NPN from purified recombinant OBP (2 uM), Tris pH 7.4; details: for IC50: IC50 against 2 uM 1-NPN; for Kd: KD calculated from IC50 of 1-NPN displacement
T3 construct: recombinant mature protein
T3 sequence (A0ACM8Q9Q2 17-135): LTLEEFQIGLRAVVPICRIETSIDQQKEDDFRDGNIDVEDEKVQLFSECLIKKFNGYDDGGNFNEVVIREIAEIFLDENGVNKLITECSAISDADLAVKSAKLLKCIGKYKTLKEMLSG
Protocol: as §1

[5] = molecular target: T3, Odorant binding protein 18 (OBP18); assay: direct fluorescence titration of purified protein
[6] = molecular target: T2, Odorant binding protein 16 (OBP16); assay: direct fluorescence titration of purified protein
[7] = molecular target: T1, OBP21; assay: direct fluorescence titration of purified protein; type: binding

Compound: CCCCCCCCCCCC(=O)O [Dodecanoic acid]
- Kd [1]: 16.9 µM
- IC50 [2]: 0.7 µM
- Kd [2]: 0.3 µM
- IC50 [3]: 10 µM
- IC50 [4]: 0.3 µM
- Kd [4]: 0.1 µM

Compound: CCCCCCCCCCCCCCCC(=O)OCC [Ethyl palmitate]
- IC50 [2]: 1.1 µM
- Kd [2]: 0.5 µM
- IC50 [3]: > 20 µM
- IC50 [4]: 0.2 µM
- Kd [4]: 0.1 µM

Compound: CCCCCCCCCCCCCCCC(=O)OC [Methyl palmitate]
- IC50 [2]: 0.9 µM
- Kd [2]: 0.4 µM
- IC50 [3]: > 20 µM
- IC50 [4]: 0.2 µM
- Kd [4]: 0.1 µM

Compound: CCCCCC(C)=O [2-Heptanone]
- Kd [1]: 33.9 µM
- IC50 [2]: 18 µM
- Kd [2]: 8.3 µM
- IC50 [3]: 20 µM
- IC50 [4]: 2.4 µM
- Kd [4]: 1.1 µM

Compound: C=CC(C)(O)CCC=C(C)C (stereo not shown) [Linalool]
- IC50 [2]: 18 µM
- Kd [2]: 8.3 µM
- IC50 [3]: > 20 µM
- IC50 [4]: 3 µM
- Kd [4]: 1.3 µM

Compound: O=C/C=C/c1ccccc1 [Cinnamaldehyde]
- IC50 [2]: 20 µM
- Kd [2]: 9.2 µM
- IC50 [3]: > 20 µM
- IC50 [4]: 3.4 µM
- Kd [4]: 1.5 µM

Compound: CC(=O)OCCc1ccccc1 [2-Phenylethyl acetate]
- Kd [1]: 30.5 µM
- IC50 [2]: 8 µM
- Kd [2]: 3.7 µM
- IC50 [3]: 18 µM
- IC50 [4]: 2.5 µM
- Kd [4]: 1.1 µM

Compound: C=CCc1ccc(O)c(OC)c1 [Eugenol]
- IC50 [2]: > 20 µM
- IC50 [3]: > 20 µM
- IC50 [4]: 2.3 µM
- Kd [4]: 1 µM

Compound: COC(=O)c1ccc(O)cc1 [Methyl p-hydroxybenzoate]
- Kd [1]: 8.5 µM
- IC50 [2]: 2.5 µM
- Kd [2]: 1.1 µM
- IC50 [3]: 5 µM
- IC50 [4]: 1.9 µM
- Kd [4]: 0.8 µM

Compound: CC(C)CCCC(C)CCO (stereo not shown) [3,7-dimethyloctanol]
- Kd [1]: 3.7 µM
- IC50 [2]: 0.5 µM
- Kd [2]: 0.2 µM
- IC50 [3]: 2.2 µM
- IC50 [4]: 0.2 µM
- Kd [4]: 0.1 µM

Compound: CCCCCCCCC(=O)O [Nonanoic acid]
- IC50 [2]: 1.1 µM
- Kd [2]: 0.5 µM
- IC50 [3]: > 20 µM
- IC50 [4]: 0.3 µM
- Kd [4]: 0.1 µM

Compound: CCCCC/C=C\C/C=C\CCCCCCCC(=O)OC [Methyl linoleate]
- IC50 [2]: 2 µM
- Kd [2]: 0.9 µM
- IC50 [3]: > 20 µM
- IC50 [4]: 0.1 µM
- Kd [4]: 0.04 µM

Compound: CC(C)=CCC/C(C)=C/CO [geraniol]
- IC50 [2]: 1.1 µM
- Kd [2]: 0.5 µM
- IC50 [3]: > 20 µM
- IC50 [4]: 0.3 µM
- Kd [4]: 0.1 µM

Compound: CC(C)=CCC/C(C)=C/C=O [Citral]
- Kd [1]: 27.1 µM
- IC50 [2]: 4.4 µM
- Kd [2]: 2 µM
- IC50 [3]: 16 µM
- IC50 [4]: 1.6 µM
- Kd [4]: 0.7 µM

Compound: CC(=O)CC/C=C(\C)CCC=C(C)C [Geranylacetone]
- Kd [1]: 2.5 µM
- IC50 [2]: 1.8 µM
- Kd [2]: 0.8 µM
- IC50 [3]: 1.5 µM
- IC50 [4]: 1.8 µM
- Kd [4]: 0.8 µM

Compound: CCCCCCCC/C=C\CCCCCCCC(=O)O [oleic acid]
- Kd [1]: 0.4 µM
- IC50 [2]: 0.9 µM
- Kd [2]: 0.4 µM
- IC50 [3]: 0.3 µM
- IC50 [4]: 0.1 µM
- Kd [4]: 0.04 µM

Compound: CC(C)=CCCC(C)CC=O (stereo not shown) [Citronellal]
- Kd [1]: 13.6 µM
- IC50 [2]: 3.5 µM
- Kd [2]: 1.6 µM
- IC50 [3]: 8 µM
- IC50 [4]: 2.5 µM
- Kd [4]: 1.1 µM

Compound: CCCCCCCCCCCCCCCCCC(=O)OC [Methyl stearate]
- IC50 [2]: 1 µM
- Kd [2]: 0.5 µM
- IC50 [3]: > 20 µM
- IC50 [4]: 0.2 µM
- Kd [4]: 0.1 µM

Compound: COc1ccccc1/C=C/C=O [2-Methoxycinnamaldehyde]
- Kd [1]: 33.9 µM
- IC50 [2]: 20 µM
- Kd [2]: 9.2 µM
- IC50 [3]: 20 µM
- IC50 [4]: 3.8 µM
- Kd [4]: 1.7 µM

Compound: OCc1ccccc1 [Benzyl alcohol]
- IC50 [2]: 9.8 µM
- Kd [2]: 4.5 µM
- IC50 [3]: > 20 µM
- IC50 [4]: 2.5 µM
- Kd [4]: 1.1 µM

Compound: COc1cc(CC(=O)O)ccc1O [Homovanillic acid]
- IC50 [2]: 18 µM
- Kd [2]: 8.3 µM
- IC50 [3]: > 20 µM
- IC50 [4]: 3.2 µM
- Kd [4]: 1.4 µM

Compound: CCCCCCCC/C=C\CCCCCCCC(N)=O [Oleamide]
- Kd [1]: 0.6 µM
- IC50 [2]: 1 µM
- Kd [2]: 0.4 µM
- IC50 [3]: 0.4 µM
- IC50 [4]: 0.1 µM
- Kd [4]: 0.1 µM

Compound: COc1cc(/C=C/CO)ccc1O [Coniferyl alcohol]
- IC50 [2]: 18 µM
- Kd [2]: 8.3 µM
- IC50 [3]: > 20 µM
- IC50 [4]: 3.6 µM
- Kd [4]: 1.6 µM

Compound: COc1cc(CCO)ccc1O [Homovanillic alcohol]
- IC50 [2]: 10.5 µM
- Kd [2]: 4.8 µM
- IC50 [3]: > 20 µM
- IC50 [4]: 2.7 µM
- Kd [4]: 1.2 µM

Compound: CC(=O)CCCCCCCC(=O)O [9-Ketodecanoic acid]
- Kd [1]: 6.8 µM
- IC50 [2]: 3.5 µM
- Kd [2]: 1.6 µM
- IC50 [3]: 4 µM
- IC50 [4]: 1.5 µM
- Kd [4]: 0.7 µM

Compound: CC(=O)OC/C=C(\C)CCC=C(C)C [geranyl acetate]
- Kd [1]: 3.1 µM
- IC50 [2]: 0.2 µM
- Kd [2]: 0.1 µM
- IC50 [3]: 1.8 µM
- IC50 [4]: 0.2 µM
- Kd [4]: 0.1 µM

Compound: OCCc1ccccc1 [2-Phenyl ethanol]
- IC50 [2]: > 20 µM
- IC50 [3]: > 20 µM
- IC50 [4]: 2.5 µM
- Kd [4]: 1.1 µM

Compound: Cc1ccccc1C=CC=O [2-Methylcinnamaldehyde]
- Kd [1]: 30.5 µM
- IC50 [2]: 7 µM
- Kd [2]: 3.2 µM
- IC50 [3]: 18 µM
- IC50 [4]: 1.2 µM
- Kd [4]: 0.5 µM

Compound: c1ccc(Nc2cccc3ccccc23)cc1 [1-NPN, N-phenyl-1-naphthylamine]
- Kd [5]: 1 to 5 µM
- Kd [6]: 1 to 5 µM
- Kd [7]: 1 to 5 µM

Compound: CC(C)CC(=O)O [3-Methylbutanoic acid]
- IC50 [2]: 11 µM
- Kd [2]: 5 µM
- IC50 [3]: > 20 µM
- IC50 [4]: 2.5 µM
- Kd [4]: 1.1 µM
